Measured values: patent US20230255195A1, “CRYOPRESERVATION METHOD FOR ORGAN-ON-A-CHIP” (MEPSGEN CO., LTD., priority 2020, published 2023)

Test system: three-dimensional organ-on-a-chip (hBMEC, pericytes, astrocytes in hydrogel)
Assay: TEER (transepithelial electrical resistance) of organ-on-a-chip after cryopreservation and thawing
Format: cell-based, human
Conditions: for TEER value after freezing compared with TEER value before freezing (normalized): FIG. 10; for TEER value after freezing compared with TEER value before freezing (normalized, before freezing set to 1): substance used as cryoprotectant in the cryopreservation method of Example 2, FIG. 9
Protocol: 10 μl of fibronectin was injected into each of the first channel and the second channel of the organ-on-a-chip of the present invention, and cultured in an incubator for 1 hour. Cell adhesion promoters of the first channel and the second channel were removed, and 10^7 cells/ml of a pericyte solution was injected into the second channel. After culturing for 3 hours in an incubator with the chip inverted, the culture solution in the second channel was removed. After injecting 10^7 cells/ml of a mixture in which astrocytes and hydrogel were mixed in a 1:9 volume ratio into the second channel, they were cultured in an incubator for 30 minutes. The culture solution was injected into the side channel and the first channel, and the well reservoir was filled with the culture solution and cultured for one day, and then 10^7 cells/ml of human brain microvascular endothelial cell (hBMEC) solution was injected into the first channel. After culturing for 1 hour in an incubator, the culture solution in the first channel was replaced and cultured for one day. The culture solution in the first channel and the side channel was replaced, and the side channel was plugged in, and then one side of the inlets of the first channel was connected to a syringe pump, and the other side was connected to a culture solution tank, and perfusion culture was performed at 4 dynes/cm^2 for 24 hours.
All of the culture solution in the well reservoir was removed from the organ-on-a-chip of Example 1 above, and the first channel and the side channel were washed with the culture solution. The side channel was washed twice with the cryopreservation solution (50% culture solution, 40% FBS, 10% DMSO) at 4 to 10° C. The culture solution in both inlets of the first channel was removed, and 30 μl of the cryopreservation solution was put into the inlet, and the cryopreservation solution was flowed by a difference in hydrostatic pressure (1 minute required). The preservation solution in the opposite inlet was removed, and 30 μl of the cryopreservation solution was additionally put into the inlet, and the cryopreservation solution was flowed by a difference in hydrostatic pressure (1 minute required). The chip was placed in a freezing container filled with isopropanol, and stored refrigerated for 15 minutes at 4° C., and then stored in a deep freezer (−80° C.).
The organ-on-a-chip of Example 2 above was taken out of the deep freezer and thawed for 10 minutes by immersing it in a constant temperature water bath (37° C.) so that the bottom was in contact, and then the culture solution in the side channel was replaced twice with a culture solution at 37° C. The preservation solution in both inlets of the first channel was removed, and 30 μl of the culture solution at 37° C. was put into the inlet, and the culture solution was flowed by a difference in hydrostatic pressure (1 minute required). The culture solution in the opposite inlet was removed, and 30 μl of the culture solution at 37° C. was additionally put into the inlet, and the culture solution was flowed by a difference in hydrostatic pressure (1 minute required). The well reservoir was filled with the culture solution at 37° C. and cultured for 24 hours or more.
The TEER value corresponds to a representative index for evaluating the cell-to-cell bonding force and the material permeability rate of the tissue and the like in the tissue function of the three-dimensional organ-on-a-chip.
The TEER value (ohm/cm^2) was calculated as follows, and the TEER value before freezing was set to 1 and compared and evaluated with the TEER value after freezing (normalized).

SMILES | TEER value after freezing compared with TEER value before freezing (normalized) (DMSO content 3% in preservation solution) | TEER value after freezing compared with TEER value before freezing (normalized) (DMSO content 5% in preservation solution) | TEER value after freezing compared with TEER value before freezing (normalized) (DMSO content 10% in preservation solution) | TEER value after freezing compared with TEER value before freezing (normalized, before freezing set to 1)
C[S+](C)[O-] [DMSO, dimethyl sulfoxide] | remained the same | increased | increased | increased
OCCO [EG, ethylene glycol] |  |  |  | lower than the TEER value before freezing
OCC(O)CO [glycerol] |  |  |  | remained the same
